The values below come from patent US20250114374A1, “BCL-2 INHIBITORS” (Newave Pharmaceutical Inc., priority 2021, published 2025).

Molecules are shown by their SMILES. Like-named read-outs stand apart in the source and are kept apart here.

This assay has as its system RS4; 11 with G101V mutation. Put plainly: In vitro anti-proliferation assay (ATPlite luminescence) in BCL-2-dependent ALL cell line RS4;11 with G101V mutation. Particulars: read-out: RS411-G101V IC50. The assay is classed as cell-based. The essentials:
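IC50 came from luminescent ATP quantification (ATPlite) following cell lysis. Compound dose ranges were applied for roughly 72 h to about 1×10^4 G101V-mutant RS4;11 cells per well, in 10% FBS medium.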

Where [1] appears, read: cellular anti-proliferative IC50, about 72 hours, medium with 10% FBS, ATPlite.

By IC50 is commonly meant the concentration that gives 50% inhibition.

`Cc1ccccc1[C@@H]1CN(Cc2cnc(N3CCOC[C@@H]3C)c(C)c2)CCN1C1CC2(CCN(c3ccc(C(=O)NS(=O)(=O)c4cc5c(c([N+](=O)[O-])c4)N[C@H](C4CCOCC4)CO5)c(N4c5cc6cc[nH]c6nc5O[C@H]5COCC[C@@H]54)c3)CC2)C1` [Example 205, 2-[(3R,8S)-2,5-dioxa-9,15,17-triazatetracyclo[8.7.0.0^{3,8}.0^{12,16}]heptadeca-1(10),11,13,16-tetraen-9-yl]-4-{2-[(2R)-4-({5-methyl-6-[(3S)-3-methylmorpholin-4-yl]pyridin-3-yl}methyl)-2-(2-methylphenyl)piperazin-1-yl]-7-azaspiro[3.5]nonan-7-yl}-N-[(3R)-5-nitro-3-(oxan-4-yl)-3,4-dihydro-2H-1,4-benzoxazin-7-ylsulfonyl]benzamide]: the IC50 under setting [1] came to 21.3 nM.

Turning to `Cc1ccccc1[C@@H]1CN(Cc2cnc(N3CCOC[C@@H]3C)c(C(F)(F)F)c2)CCN1C1CC2(CCN(c3ccc(C(=O)NS(=O)(=O)c4cc5c(c([N+](=O)[O-])c4)N[C@H](C4CCOCC4)CO5)c(N4c5cc6cc[nH]c6nc5O[C@H]5COCC[C@@H]54)c3)CC2)C1` [Example 206, 2-[(3R,8S)-2,5-dioxa-9,15,17-triazatetracyclo[8.7.0.0^{3,8}.0^{12,16}]heptadeca-1(10),11,13,16-tetraen-9-yl]-4-{2-[(2R)-4-({6-[(3S)-3-methylmorpholin-4-yl]-5-(trifluoromethyl)pyridin-3-yl}methyl)-2-(2-methylphenyl)piperazin-1-yl]-7-azaspiro[3.5]nonan-7-yl}-N-[(3R)-5-nitro-3-(oxan-4-yl)-3,4-dihydro-2H-1,4-benzoxazin-7-ylsulfonyl]benzamide], the IC50 under setting [1] amounted to 229 nM.

For the compound `CC(C)Oc1ccccc1[C@@H]1CN(C2CCC(C)(O)CC2)CCN1C1CC2(CCN(c3ccc(C(=O)NS(=O)(=O)c4cc5c(c([N+](=O)[O-])c4)N[C@H](C4CCOCC4)CO5)c(N4c5cc6cc[nH]c6nc5O[C@H]5COCC[C@@H]54)c3)CC2)C1` (stereo partly drawn) [Example 207, 4-(2-((R)-4-((1r,4R)-4-hydroxy-4-methylcyclohexyl)-2-(2-isopropoxyphenyl)piperazin-1-yl)-7-azaspiro[3.5]nonan-7-yl)-N-(((R)-5-nitro-3-(tetrahydro-2H-pyran-4-yl)-3,4-dihydro-2H-benzo[b][1,4]oxazin-7-yl)sulfonyl)-2-((5aS,9aR)-6,7,9,9a-tetrahydro-1H-pyrano[3,4-b]pyrrolo[3′,2′:5,6]pyrido[3,2-e][1,4]oxazin-5(5aH)-yl)benzamide], the IC50 under setting [1] came to 26.9 nM.

`CC(C)Oc1ccccc1[C@@H]1CN(C2CCC3(CCOCC3)CC2)CCN1C1CC2(CCN(c3ccc(C(=O)NS(=O)(=O)c4cc5c(c([N+](=O)[O-])c4)N[C@H](C4CCOCC4)CO5)c(N4c5cc6cc[nH]c6nc5O[C@H]5COCC[C@@H]54)c3)CC2)C1` (stereo partly drawn) [Example 209, 2-[(3R,8S)-2,5-dioxa-9,15,17-triazatetracyclo[8.7.0.0^{3,8}.0^{12,16}]heptadeca-1(10),11,13,16-tetraen-9-yl]-4-{2-[(2R)-2-(2-isopropoxyphenyl)-4-{3-oxaspiro[5.5]undecan-9-yl}piperazin-1-yl]-7-azaspiro[3.5]nonan-7-yl}-N-[(3R)-5-nitro-3-(oxan-4-yl)-3,4-dihydro-2H-1,4-benzoxazin-7-ylsulfonyl]benzamide]: the IC50 under setting [1] was determined as 16.3 nM.

`CC(C)Oc1ccccc1[C@@H]1CN([C@H]2CCOc3cc(F)c(F)cc32)CCN1C1CC2(CCN(c3ccc(C(=O)NS(=O)(=O)c4cc5c(c([N+](=O)[O-])c4)N[C@H](C4CCOCC4)CO5)c(N4c5cc6cc[nH]c6nc5O[C@H]5COCC[C@@H]54)c3)CC2)C1` [Example 210, 4-{2-[(2R)-4-[(4S)-6,7-difluoro-3,4-dihydro-2H-1-benzopyran-4-yl]-2-(2-isopropoxyphenyl)piperazin-1-yl]-7-azaspiro[3.5]nonan-7-yl}-2-[(3R,8S)-2,5-dioxa-9,15,17-triazatetracyclo[8.7.0.0^{3,8}.0^{12,16}]heptadeca-1(10),11,13,16-tetraen-9-yl]-N-[(3R)-5-nitro-3-(oxan-4-yl)-3,4-dihydro-2H-1,4-benzoxazin-7-ylsulfonyl]benzamide]: the IC50 under setting [1] turned out to be 37.8 nM.

On to `CC(C)Oc1ccccc1[C@@H]1CN([C@@H]2CCOc3cc(F)c(F)cc32)CCN1C1CC2(CCN(c3ccc(C(=O)NS(=O)(=O)c4cc5c(c([N+](=O)[O-])c4)N[C@H](C4CCOCC4)CO5)c(N4c5cc6cc[nH]c6nc5O[C@H]5COCC[C@@H]54)c3)CC2)C1` [Example 211, 4-{2-[(2R)-4-[(4R)-6,7-difluoro-3,4-dihydro-2H-1-benzopyran-4-yl]-2-(2-isopropoxyphenyl)piperazin-1-yl]-7-azaspiro[3.5]nonan-7-yl}-2-[(3R,8S)-2,5-dioxa-9,15,17-triazatetracyclo[8.7.0.0^{3,8}.0^{12,16}]heptadeca-1(10),11,13,16-tetraen-9-yl]-N-[(3R)-5-nitro-3-(oxan-4-yl)-3,4-dihydro-2H-1,4-benzoxazin-7-ylsulfonyl]benzamide], for which the IC50 under setting [1] came to 87.2 nM.

Consider `CC(C)Oc1ccccc1[C@@H]1CN([C@@H]2CCOc3c2ccc(F)c3F)CCN1C1CC2(CCN(c3ccc(C(=O)NS(=O)(=O)c4cc5c(c([N+](=O)[O-])c4)N[C@H](C4CCOCC4)CO5)c(N4c5cc6cc[nH]c6nc5O[C@H]5COCC[C@@H]54)c3)CC2)C1` [Example 212, 4-{2-[(2R)-4-[(4R)-7,8-difluoro-3,4-dihydro-2H-1-benzopyran-4-yl]-2-(2-isopropoxyphenyl)piperazin-1-yl]-7-azaspiro[3.5]nonan-7-yl}-2-[(3R,8S)-2,5-dioxa-9,15,17-triazatetracyclo[8.7.0.0^{3,8}.0^{12,16}]heptadeca-1(10),11,13,16-tetraen-9-yl]-N-[(3R)-5-nitro-3-(oxan-4-yl)-3,4-dihydro-2H-1,4-benzoxazin-7-ylsulfonyl]benzamide], for which the IC50 under setting [1] was found to be 33.5 nM.

For `CC(C)Oc1ccccc1[C@@H]1CN([C@H]2CCOc3c2ccc(F)c3F)CCN1C1CC2(CCN(c3ccc(C(=O)NS(=O)(=O)c4cc5c(c([N+](=O)[O-])c4)N[C@H](C4CCOCC4)CO5)c(N4c5cc6cc[nH]c6nc5O[C@H]5COCC[C@@H]54)c3)CC2)C1` [Example 213, 4-{2-[(2R)-4-[(4S)-7,8-difluoro-3,4-dihydro-2H-1-benzopyran-4-yl]-2-(2-isopropoxyphenyl)piperazin-1-yl]-7-azaspiro[3.5]nonan-7-yl}-2-[(3R,8S)-2,5-dioxa-9,15,17-triazatetracyclo[8.7.0.0^{3,8}.0^{12,16}]heptadeca-1(10),11,13,16-tetraen-9-yl]-N-[(3R)-5-nitro-3-(oxan-4-yl)-3,4-dihydro-2H-1,4-benzoxazin-7-ylsulfonyl]benzamide], the IC50 under setting [1] was determined as 23.8 nM.

As for `CC(C)Oc1ccccc1[C@@H]1CN([C@H]2CCOc3c(F)cc(F)cc32)CCN1C1CC2(CCN(c3ccc(C(=O)NS(=O)(=O)c4cc5c(c([N+](=O)[O-])c4)N[C@H](C4CCOCC4)CO5)c(N4c5cc6cc[nH]c6nc5O[C@H]5COCC[C@@H]54)c3)CC2)C1` [Example 214, 4-(2-((R)-4-((S)-6,8-difluorochroman-4-yl)-2-(2-isopropoxyphenyl)piperazin-1-yl)-7-azaspiro[3.5]nonan-7-yl)-N-(((R)-5-nitro-3-(tetrahydro-2H-pyran-4-yl)-3,4-dihydro-2H-benzo[b][1,4]oxazin-7-yl)sulfonyl)-2-((5aS,9aR)-6,7,9,9a-tetrahydro-1H-pyrano[3,4-b]pyrrolo[3′,2′:5,6]pyrido[3,2-e][1,4]oxazin-5(5aH)-yl)benzamide], the IC50 (Homo sapiens, RS4-11, 72 h) was determined as 385 nM.
